In publication PMC7316778 (Nature Communications, 2020):
Values joined by “and” are separate entries in the source; they are usually repeats but may differ in a detail not shown here. Identical values can stand only once. Like-named read-outs stand apart in the source and are kept apart here.

Legend:
FES^S700C HL-60 cells = test: CD11b surface expression, PMA-induced macrophage differentiation; format: cell-based, human; conditions: for CD11b-positive cells (%): Figure 6d, S700C
AKT1 (PKB alpha) = AKT1 (PKB alpha) (Homo sapiens, UniProt P31749); test: SelectScreen kinase assay; conditions: for Inhibition at 1 µM (%): AKT1 (PKB alpha), ZLYTE, ATP Km app
Experimental: (§1) Selectivity profiling assays were performed by the Invitrogen SelectScreen™ Services. […] The concentration of ATP was selected to be equal to the KM, unless indicated otherwise.

BRAF [1] = molecular target: BRAF (Homo sapiens, UniProt P15056); test: SelectScreen kinase assay
Experimental: as §1

BRAF [2] = test: SelectScreen kinase assay; conditions: IC50 on that kinase divided by IC50 on FES^S700C
Experimental: as §1

CDK2/cyclin A1 = CDK2/cyclin A1 (Homo sapiens, UniProt P24941); test: SelectScreen kinase assay
Experimental: as §1

EPHB3 = molecular target: T1, EPHB3 (Homo sapiens, UniProt P54753); test: SelectScreen kinase assay; conditions: for Inhibition at 1 µM (%): EPHB3, ZLYTE, ATP Km app
T1 sequence (P54753 34-998): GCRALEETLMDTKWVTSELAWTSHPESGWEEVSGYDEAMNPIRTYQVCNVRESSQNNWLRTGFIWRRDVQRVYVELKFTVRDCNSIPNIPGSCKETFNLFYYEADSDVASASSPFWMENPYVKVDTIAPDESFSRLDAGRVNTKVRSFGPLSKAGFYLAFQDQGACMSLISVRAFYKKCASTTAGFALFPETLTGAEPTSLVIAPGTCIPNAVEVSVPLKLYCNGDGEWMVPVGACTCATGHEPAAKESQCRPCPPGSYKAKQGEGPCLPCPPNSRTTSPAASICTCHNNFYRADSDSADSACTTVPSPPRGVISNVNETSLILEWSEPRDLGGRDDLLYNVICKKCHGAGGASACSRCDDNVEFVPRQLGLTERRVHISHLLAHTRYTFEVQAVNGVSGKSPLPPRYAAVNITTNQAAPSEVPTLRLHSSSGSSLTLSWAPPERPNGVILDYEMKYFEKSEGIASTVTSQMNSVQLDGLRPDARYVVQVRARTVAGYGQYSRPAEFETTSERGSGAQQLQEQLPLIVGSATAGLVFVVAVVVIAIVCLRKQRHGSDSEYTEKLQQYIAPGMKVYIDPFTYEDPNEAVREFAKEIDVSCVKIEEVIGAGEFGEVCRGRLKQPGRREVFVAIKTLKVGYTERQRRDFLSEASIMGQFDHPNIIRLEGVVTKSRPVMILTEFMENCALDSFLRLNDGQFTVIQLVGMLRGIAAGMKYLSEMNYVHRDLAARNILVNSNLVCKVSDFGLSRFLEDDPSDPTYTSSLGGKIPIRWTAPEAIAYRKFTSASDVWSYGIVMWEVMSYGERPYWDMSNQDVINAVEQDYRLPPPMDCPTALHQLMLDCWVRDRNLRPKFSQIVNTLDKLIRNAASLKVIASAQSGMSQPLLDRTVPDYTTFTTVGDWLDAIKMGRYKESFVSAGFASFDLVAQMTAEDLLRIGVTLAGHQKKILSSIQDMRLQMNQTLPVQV
Experimental: as §1

FGFR1 = FGFR1 (Homo sapiens, UniProt P11362); test: SelectScreen kinase assay
Experimental: as §1

MATK (HYL) = MATK (HYL) (Homo sapiens, UniProt P42679); test: SelectScreen kinase assay
Experimental: as §1

PAK6 = PAK6 (Homo sapiens, UniProt Q9NQU5); test: SelectScreen kinase assay; conditions: 1 h, 1 μM WEL028, 1 h preincubation
Experimental: as §1

[3] = molecular target: PIK3CD/PIK3R1 (p110d/p85a) (Homo sapiens, UniProt O00329); test: SelectScreen kinase assay; conditions: 1 h, 1 μM WEL028, 1 h preincubation
Experimental: as §1

PIP4K2A = PIP4K2A (Homo sapiens, UniProt P48426); test: SelectScreen kinase assay; conditions: 1 h, 1 μM WEL028, 1 h preincubation
Experimental: as §1

SIK1 = SIK1 (Homo sapiens, UniProt P57059); test: SelectScreen kinase assay
Experimental: as §1

FES^S700C = FES^S700C (Homo sapiens, UniProt P07332, S700C); test: In situ two-step labeling of transfected HEK293T cells (click chemistry); format: cell-based; design: expressed in transfected cells; host or cells: HEK293T (transient, PEI)
[4] = 1 h, 1 μM WEL028, 1 h preincubation

BRAF (Homo sapiens, UniProt P15056), sequence (P15056 whole entry, species assumed): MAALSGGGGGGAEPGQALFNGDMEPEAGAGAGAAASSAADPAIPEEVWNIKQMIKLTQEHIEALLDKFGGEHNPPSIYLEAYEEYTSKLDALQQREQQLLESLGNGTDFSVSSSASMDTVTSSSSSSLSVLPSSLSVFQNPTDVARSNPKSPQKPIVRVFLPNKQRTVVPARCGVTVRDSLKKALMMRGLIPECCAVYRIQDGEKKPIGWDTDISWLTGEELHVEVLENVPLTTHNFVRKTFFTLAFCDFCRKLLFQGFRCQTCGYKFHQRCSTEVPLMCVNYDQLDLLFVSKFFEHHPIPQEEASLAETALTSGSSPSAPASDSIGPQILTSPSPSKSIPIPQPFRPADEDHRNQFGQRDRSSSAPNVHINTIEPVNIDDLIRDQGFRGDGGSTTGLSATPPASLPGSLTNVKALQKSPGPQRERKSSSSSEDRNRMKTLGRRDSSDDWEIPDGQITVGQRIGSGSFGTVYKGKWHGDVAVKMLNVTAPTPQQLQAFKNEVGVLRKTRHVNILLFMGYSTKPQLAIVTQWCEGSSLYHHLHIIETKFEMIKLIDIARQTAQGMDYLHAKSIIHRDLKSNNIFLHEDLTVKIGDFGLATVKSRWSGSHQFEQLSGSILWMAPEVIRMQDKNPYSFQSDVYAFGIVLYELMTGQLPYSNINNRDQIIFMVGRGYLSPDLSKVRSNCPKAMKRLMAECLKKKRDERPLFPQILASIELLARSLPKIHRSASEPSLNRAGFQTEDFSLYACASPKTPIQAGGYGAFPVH
SIK1, sequence (P57059 whole entry): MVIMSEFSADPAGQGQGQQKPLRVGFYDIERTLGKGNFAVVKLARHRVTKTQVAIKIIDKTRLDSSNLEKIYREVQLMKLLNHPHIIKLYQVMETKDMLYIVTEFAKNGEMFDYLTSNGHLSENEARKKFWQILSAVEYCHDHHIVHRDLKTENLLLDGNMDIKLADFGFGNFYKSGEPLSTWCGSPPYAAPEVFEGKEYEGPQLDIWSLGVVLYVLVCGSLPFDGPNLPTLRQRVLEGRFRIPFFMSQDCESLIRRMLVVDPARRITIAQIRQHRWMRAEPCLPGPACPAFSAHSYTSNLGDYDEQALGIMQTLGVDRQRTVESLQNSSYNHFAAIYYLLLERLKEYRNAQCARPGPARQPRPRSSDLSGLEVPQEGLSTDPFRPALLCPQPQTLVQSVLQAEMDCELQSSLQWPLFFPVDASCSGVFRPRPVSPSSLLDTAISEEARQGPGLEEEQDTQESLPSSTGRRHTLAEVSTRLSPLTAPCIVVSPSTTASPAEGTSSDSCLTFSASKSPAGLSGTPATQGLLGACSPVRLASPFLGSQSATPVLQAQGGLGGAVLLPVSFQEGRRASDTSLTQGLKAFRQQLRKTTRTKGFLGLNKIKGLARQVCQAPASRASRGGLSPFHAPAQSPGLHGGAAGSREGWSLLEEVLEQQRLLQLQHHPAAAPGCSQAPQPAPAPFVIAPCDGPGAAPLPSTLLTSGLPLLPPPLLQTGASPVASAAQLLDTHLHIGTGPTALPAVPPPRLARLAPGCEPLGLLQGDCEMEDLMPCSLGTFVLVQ
AKT1 (PKB alpha), sequence (P31749 whole entry): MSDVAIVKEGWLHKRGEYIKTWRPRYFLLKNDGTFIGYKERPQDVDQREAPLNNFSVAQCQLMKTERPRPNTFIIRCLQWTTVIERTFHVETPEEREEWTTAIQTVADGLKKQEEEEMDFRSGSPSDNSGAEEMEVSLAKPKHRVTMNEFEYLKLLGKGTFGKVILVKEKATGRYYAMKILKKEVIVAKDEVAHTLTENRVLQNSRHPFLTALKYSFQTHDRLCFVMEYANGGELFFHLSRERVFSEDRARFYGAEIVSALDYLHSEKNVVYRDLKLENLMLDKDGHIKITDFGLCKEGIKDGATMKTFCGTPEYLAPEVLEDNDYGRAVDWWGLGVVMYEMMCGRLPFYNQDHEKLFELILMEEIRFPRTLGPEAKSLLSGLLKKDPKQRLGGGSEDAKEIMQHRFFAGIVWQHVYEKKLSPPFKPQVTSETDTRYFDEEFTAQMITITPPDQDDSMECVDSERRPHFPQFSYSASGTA
FGFR1, sequence (P11362 22-822): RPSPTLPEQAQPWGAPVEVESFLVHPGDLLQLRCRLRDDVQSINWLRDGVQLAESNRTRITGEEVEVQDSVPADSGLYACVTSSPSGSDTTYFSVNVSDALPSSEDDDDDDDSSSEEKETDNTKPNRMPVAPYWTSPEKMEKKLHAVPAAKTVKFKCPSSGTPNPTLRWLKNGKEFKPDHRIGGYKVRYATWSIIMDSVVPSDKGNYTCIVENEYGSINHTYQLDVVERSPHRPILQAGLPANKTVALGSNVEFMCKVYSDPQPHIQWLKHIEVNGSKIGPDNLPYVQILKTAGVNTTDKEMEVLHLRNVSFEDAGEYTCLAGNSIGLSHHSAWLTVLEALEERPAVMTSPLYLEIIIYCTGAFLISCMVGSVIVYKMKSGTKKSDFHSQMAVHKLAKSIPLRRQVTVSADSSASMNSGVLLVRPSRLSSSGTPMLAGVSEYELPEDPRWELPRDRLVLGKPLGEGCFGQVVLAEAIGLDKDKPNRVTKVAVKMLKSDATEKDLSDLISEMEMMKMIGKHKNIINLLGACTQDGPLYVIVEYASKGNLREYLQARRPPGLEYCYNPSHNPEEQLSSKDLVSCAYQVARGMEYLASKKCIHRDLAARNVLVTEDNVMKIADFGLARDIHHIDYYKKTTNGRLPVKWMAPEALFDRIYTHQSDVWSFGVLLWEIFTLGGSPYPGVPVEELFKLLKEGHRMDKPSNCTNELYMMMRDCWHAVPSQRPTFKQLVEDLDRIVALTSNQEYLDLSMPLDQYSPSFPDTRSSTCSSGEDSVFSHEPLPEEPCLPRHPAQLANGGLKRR
FES^S700C, sequence (P07332 whole entry S700C): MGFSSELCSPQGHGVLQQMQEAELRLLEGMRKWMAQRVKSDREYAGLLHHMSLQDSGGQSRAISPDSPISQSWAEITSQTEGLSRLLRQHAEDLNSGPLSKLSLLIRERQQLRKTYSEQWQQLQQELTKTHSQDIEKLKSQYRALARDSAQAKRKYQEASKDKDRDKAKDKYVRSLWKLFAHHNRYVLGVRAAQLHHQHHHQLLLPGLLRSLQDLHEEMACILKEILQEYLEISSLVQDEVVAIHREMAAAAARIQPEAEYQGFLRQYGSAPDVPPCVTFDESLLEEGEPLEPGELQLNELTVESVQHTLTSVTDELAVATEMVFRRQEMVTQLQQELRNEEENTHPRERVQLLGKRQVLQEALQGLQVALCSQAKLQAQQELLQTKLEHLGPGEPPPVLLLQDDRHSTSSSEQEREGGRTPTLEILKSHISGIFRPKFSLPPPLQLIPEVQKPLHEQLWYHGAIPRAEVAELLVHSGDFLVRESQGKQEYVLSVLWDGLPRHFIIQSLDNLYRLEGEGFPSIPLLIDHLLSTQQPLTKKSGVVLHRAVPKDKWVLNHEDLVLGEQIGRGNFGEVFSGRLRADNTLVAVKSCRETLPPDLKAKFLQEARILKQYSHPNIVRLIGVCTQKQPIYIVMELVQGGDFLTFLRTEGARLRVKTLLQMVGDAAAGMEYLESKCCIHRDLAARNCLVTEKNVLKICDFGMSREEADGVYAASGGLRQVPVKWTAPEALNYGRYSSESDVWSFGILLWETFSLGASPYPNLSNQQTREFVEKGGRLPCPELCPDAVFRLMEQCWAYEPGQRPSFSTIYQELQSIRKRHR
MATK (HYL), sequence (P42679 whole entry): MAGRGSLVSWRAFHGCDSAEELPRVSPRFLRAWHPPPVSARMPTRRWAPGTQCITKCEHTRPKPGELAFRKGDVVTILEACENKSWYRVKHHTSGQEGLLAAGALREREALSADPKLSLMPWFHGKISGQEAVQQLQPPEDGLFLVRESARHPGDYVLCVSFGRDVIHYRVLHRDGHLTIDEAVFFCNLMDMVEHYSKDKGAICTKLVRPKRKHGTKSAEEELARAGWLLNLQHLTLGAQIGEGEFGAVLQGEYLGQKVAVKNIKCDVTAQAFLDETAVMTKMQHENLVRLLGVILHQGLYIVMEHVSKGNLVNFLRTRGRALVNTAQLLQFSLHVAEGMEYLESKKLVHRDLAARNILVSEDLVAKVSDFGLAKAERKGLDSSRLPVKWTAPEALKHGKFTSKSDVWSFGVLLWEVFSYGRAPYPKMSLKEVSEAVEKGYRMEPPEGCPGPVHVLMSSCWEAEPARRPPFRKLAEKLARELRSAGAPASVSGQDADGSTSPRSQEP
PAK6, sequence (Q9NQU5 whole entry): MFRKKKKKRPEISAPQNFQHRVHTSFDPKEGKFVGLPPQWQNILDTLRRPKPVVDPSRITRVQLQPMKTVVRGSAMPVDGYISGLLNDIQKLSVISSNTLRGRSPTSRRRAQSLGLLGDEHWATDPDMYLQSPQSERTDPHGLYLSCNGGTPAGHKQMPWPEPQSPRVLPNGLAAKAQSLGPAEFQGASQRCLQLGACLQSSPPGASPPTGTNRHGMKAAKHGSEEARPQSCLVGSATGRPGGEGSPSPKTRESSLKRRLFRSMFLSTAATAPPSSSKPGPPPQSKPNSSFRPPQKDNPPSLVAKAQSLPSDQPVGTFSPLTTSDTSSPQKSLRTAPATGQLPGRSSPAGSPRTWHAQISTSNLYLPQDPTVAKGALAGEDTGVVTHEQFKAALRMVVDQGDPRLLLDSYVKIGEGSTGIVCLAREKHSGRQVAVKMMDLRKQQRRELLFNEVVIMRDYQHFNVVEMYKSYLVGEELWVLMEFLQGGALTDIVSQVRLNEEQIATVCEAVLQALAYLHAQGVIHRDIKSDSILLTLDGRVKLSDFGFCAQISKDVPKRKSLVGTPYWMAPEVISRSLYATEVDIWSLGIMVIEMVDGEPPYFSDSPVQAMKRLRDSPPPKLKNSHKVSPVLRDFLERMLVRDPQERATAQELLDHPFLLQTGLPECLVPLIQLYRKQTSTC

C#CCOc1ccc(Nc2ncc(Cl)c(Nc3ccccc3NC(=O)C=C)n2)c(OC)c1 [Compound 6]
Increase in CD11b expression (FES^S700C HL-60 cells; 100 nM WEL028): 3%
Percentage of CD11b-positive cells (FES^S700C HL-60 cells; 100 nM WEL028): minimally affected
CD11b expression (FES^S700C HL-60 cells; 1 µM WEL028): completely failed to express CD11b
CD11b-positive cells (%) (FES^S700C HL-60 cells; WEL028 100 nM): 93.479% and 95.735% and 92.126%
CD11b-positive cells (%) (FES^S700C HL-60 cells; WEL028 1 µM): 19.047% and 18.635% and 20.613%
inhibition at 1 µM (AKT1 (PKB alpha); [4]): -3%
Inhibition at 1 µM (%) (AKT1 (PKB alpha)): -2%
Inhibition at 1 µM (%) (AKT1 (PKB alpha); listed as WEL028, 1 µM): -4%
IC50 (BRAF [1]): 100 nM
inhibition at 1 µM (BRAF [1]; [4]): 94%
inhibition at 10 µM (BRAF [1]; 1 h, log[inhibitor] (M) -5.00, ZLYTE, ATP 100): 98%
inhibition at 3.311 µM (BRAF [1]; 1 h, log[inhibitor] (M) -5.48, ZLYTE, ATP 100): 100%
inhibition at 1.122 µM (BRAF [1]; 1 h, log[inhibitor] (M) -5.95, ZLYTE, ATP 100): 96%
inhibition at 0.3715 µM (BRAF [1]; 1 h, log[inhibitor] (M) -6.43, ZLYTE, ATP 100): 65%
inhibition at 0.123 µM (BRAF [1]; 1 h, log[inhibitor] (M) -6.91, ZLYTE, ATP 100): 53%
inhibition at 0.04074 µM (BRAF [1]; 1 h, log[inhibitor] (M) -7.39, ZLYTE, ATP 100): 28%
inhibition at 0.0138 µM (BRAF [1]; 1 h, log[inhibitor] (M) -7.86, ZLYTE, ATP 100): 15%
inhibition at 0.001514 µM (BRAF [1]; 1 h, log[inhibitor] (M) -8.82, ZLYTE, ATP 100): 3%
Inhibition at 1 µM (%) (BRAF [1]; BRAF, 1 µM, ZLYTE, ATP 100, listed as WEL028, 1 µM): 97%
inhibition at 1 µM (BRAF [1]; read-out: Inhibition at 1 µM (%), BRAF, 1 µM, ZLYTE, ATP 100): 90%
Apparent fold selectivity (BRAF [2]): 25 fold
Inhibition (%) (CDK2/cyclin A1; 1 μM WEL028, 1 h preincubation): 5%
Inhibition at 1 µM (%) (CDK2/cyclin A1; CDK2/cyclin A1, 1 µM, LanthaScreen Binding, listed as WEL028, 1 µM): 7%
inhibition at 1 µM (CDK2/cyclin A1; read-out: Inhibition at 1 µM (%), CDK2/cyclin A1, 1 µM, LanthaScreen Binding): 4%
inhibition at 1 µM (EPHB3; [4]): 1%
Inhibition at 1 µM (%) (EPHB3): 2%
Inhibition at 1 µM (%) (EPHB3; listed as WEL028, 1 µM): 0%
inhibition at 1 µM (FGFR1; [4]): 3%
Inhibition at 1 µM (%) (FGFR1; FGFR1, 1 µM, ZLYTE, ATP Km app, listed as WEL028, 1 µM): 5% and 1%
inhibition at 1 µM (MATK (HYL); 1 h): 8%
inhibition at 1 µM (MATK (HYL); read-out: Inhibition at 1 µM (%)): 8%
inhibition at 1 µM (PAK6): -7%
inhibition at 1 µM [3]: 8%
inhibition at 1 µM (PIP4K2A): -10%
Inhibition (%) (SIK1; 1 μM WEL028, 1 h preincubation): 5%
Inhibition at 1 µM (%) (SIK1; 1 µM, LanthaScreen Binding, listed as WEL028, 1 µM): 5%
inhibition at 1 µM (SIK1; read-out: Inhibition at 1 µM (%), 1 µM, LanthaScreen Binding): 4%
Cell permeability (FES^S700C; living HEK293T cells): cell-permeable
Concentration sufficient to fully block labeling of FES^S700C (FES^S700C; living HEK293T cells): 100 nM
IC50 (FES^S700C; transfected HEK293T cells treated with WEL028, click chemistry, n = 3, read-out: pIC50, labeling of FES^S700C in live cells (converted)): 25.1 nM
